As a reminder, the IC50 is the concentration at which inhibition is half-maximal. The low end stands for inhibition by little substance, the high end for a need for much substance.

This test concerns Wnt activity (SW480 colon carcinoma cells stably expressing the Sp5-Luc reporter gene). Put plainly: Sp5-Luc reporter gene screening assay for Wnt activity in SW480 cells. Type of test: cell-based. To be noted: Homo sapiens, 42 h incubation, luminescence. From the text: The screening assay for Wnt activity is described as follows. Reporter cell lines can be generated by stably transducing cancer cell lines (e.g., colon cancer) or primary cells (e.g., IEC-6 intestinal cells) with a lentiviral construct that includes a Wnt-responsive promoter driving expression of the firefly luciferase gene.
SW480 colon carcinoma cells were transduced with a lentiviral vector expressing luciferase with a human Sp5 promoter consisting of a sequence of eight TCF/LEF binding sites. SW480 cells stably expressing the Sp5-Luc reporter gene and a hygromycin resistance gene were selected by treatment with 150 μg/ml of hygromycin for 7 days. These stably transduced SW480 cells were expanded in cell culture and used for all further screening activities. For Sp5-Luc reporter gene assays, the cells were plated at 10,000 cells/well in 96-well plates with growth medium containing 10% fetal calf serum and incubated overnight at 37° C. and 5% CO2. Each compound was dissolved in DMSO as a 10 mM stock in standard j-vials and used to prepare compound source plates in dose-response format with 3-fold serial dilutions and a 10 mM top concentration. Compound transfer from serially diluted source plates to assay plates containing the cells was accomplished using a pintool (Multimek 96, Beckman equipped with V&P Scientific FP1S50H pins) based liquid handling protocol. This protocol used a slotted pin to transfer 50 nl of compound from a source plate well to an assay plate well containing 50 μl of cells in growth medium. […] Control wells received 50 nl of DMSO treatment for normalization and calculating IC50 values. The treated cells were incubated at 37° C. and 5% CO2 for an additional forty-two hours. Following incubation, the growth medium was removed and 50 μl of BrightGlo luminescence reagent (Promega) was added to each well of the 96-well assay plates. The plates were placed on an orbital shaker for 5 min and then luminescence was quantified on the Victor3 (Perkin Elmer) plate reader. Readings were normalized to DMSO only treated cells, and normalized activities were utilized for IC50 calculations using the dose-response log (inhibitor) vs. response—variable slope (four parameters) nonlinear regression feature available in GraphPad Prism 5.0 or 6.0.

`Fc1cccc(-c2ccnc3[nH]c(-c4n[nH]c5ccc(-c6cncc(OCCN7CCCC7)c6)cc45)nc23)c1` [Compound 1882, 7-(3-Fluorophenyl)-2-(5-(5-(2-(pyrrolidin-1-yl)ethoxy)pyridin-3-yl)-1H-indazol-3-yl)-3H-imidazo[4,5-b]pyridine]: half-maximal inhibition (IC50) required 4140 nM.
With `COc1cc(F)cc(-c2ccnc3[nH]c(-c4n[nH]c5ccc(-c6cncc(NC(=O)CC(C)C)c6)cc45)nc23)c1` [Compound 2330, N-(5-(3-(7-(3-Fluoro-5-methoxyphenyl)-3H-imidazo[4,5-b]pyridin-2-yl)-1H-indazol-5-yl)pyridin-3-yl)-3-methylbutanamide] the figure was 20 nM; with `CC(C)(C)C(=O)Nc1cncc(-c2ccc3[nH]nc(-c4nc5c(-c6ccsc6)ccnc5[nH]4)c3c2)c1` [Compound 268, N-(5-(3-(7-(Thiophen-3-yl)-3H-imidazo[4,5-b]pyridin-2-yl)-1H-indazol-5-yl)pyridin-3-yl)pivalamide], 6.5 nM.
On to `CC(C)C(=O)Nc1cncc(-c2ccc3[nH]nc(-c4nc5c(-c6cccs6)ccnc5[nH]4)c3c2)c1` [Compound 321, N-(5-(3-(7-(Thiophen-2-yl)-3H-imidazo[4,5-b]pyridin-2-yl)-1H-indazol-5-yl)pyridin-3-yl)isobutyramide], for which the IC50 was 41.1 nM.
In turn, `CC(C)CC(=O)Nc1cncc(-c2ccc3[nH]nc(-c4nc5c(-c6ccc(F)cc6)ccnc5[nH]4)c3c2)c1` [Compound 28, N-(5-(3-(7-(4-Fluorophenyl)-3H-imidazo[4,5-b]pyridin-2-yl)-1H-indazol-5-yl)pyridin-3-yl)-3-methylbutanamide] came in with an IC50 of 4 nM.

The values above are taken from patent publication US10280166B2, “2-(1H-indazol-3-yl)-3H-imidazo[4,5-B]pyridine and therapeutic uses thereof” (Samumed, LLC, priority 2014, dated 2019).
